Experimental data published in publication PMC10102849 (Clinical cancer research : an official journal of the …, 2023).

How the values were obtained:
JW23.3 cells = assay type: cell-based, murine; conditions: 72 hours
JH-2-002 cells = assay type: cell-based, human; conditions: 72 hours
MPNST-724 cells = assay type: cell-based, human; conditions: 3 days
[1] = system: JW23.3, JH-2-002, and MPNST-724 cells; experiment: IncuCyte proliferation assay, range stated over three MPNST cell lines; assay type: cell-based; conditions: 72 h, read-out: IC50 for inhibition of cell confluence, range over cell lines

Row | SMILES | effect on percent cell confluence / proliferation (JW23.3 cells) | effect on percent cell confluence / proliferation (JH-2-002 cells) | effect on proliferation (MPNST-724 cells) | IC50 [1] [nM]
1 | O=C(NOC[C@H](O)CO)c1ccc(F)c(F)c1Nc1ccc(I)cc1F [mirdametinib] | dose-dependently reduced | dose-dependently reduced | dose-dependently reduced | 220 to 1220
2 | CCS(=O)(=O)N1CC(CC#N)(n2cc(-c3ncnc4[nH]ccc34)cn2)C1 [baricitinib] | decreased cell proliferation at higher doses | decreased cell proliferation at higher doses | – | –
